The conditions of assay [1]: cited from earlier work.
A short description of assay [2]: Active (recommended or clinically efficacious) dose for treating cancer in patients. Type of assay: in vivo. Conditions: converted for a human with a body weight of 60 kg; advanced or recurrent head and neck cancers. An excerpt: Active doses for FLT3 receptor inhibitor, according to Method 1 as described above, are the recommended doses, as appearing in the drug label when the product is marketed. […] Such information may be found via various sources well known by the person skilled in the art, such as articles, FDA data publications, labeling of marketed products, Summary of Product Characteristics (SmPC) from the European Medicine Agency (EMA), clinical trial descriptions from the US National Institute of Health (available at www.clinicaltrials.gov) and information on the outer product packaging.

Assay [3] has as its system nerve injury-induced mechanical pain hypersensitivity. Description: Spinal Nerve Ligation (SNL) model, paw pressure test. Conditions: for maximal inhibition on the SNL model in rat (dose): Method 1, no experimental details given; for Human Equivalent Dose (HED) from SNL rat dose: allometric FDA factor for the rat 6.2, human body weight 60 kg. It is filed as in vivo, rat.
Method: Adult Sprague Dawley rats (300-340 gr) (Janvier LABS, Le Genest Saint-Isle, France) were used according to the guidelines of the International Association for the Study of Pain. Rats were housed in cages with a 12/12 hr light/dark cycle and fed food and water ad libitum. Behavioral responsiveness of the rats was tested following ten days of habituation to the testing environment and the observer. Left side L5 spinal nerve was injured as described by Kim and Chung (1992) Pain 50, 355-363. Anesthesia was induced and maintained with isoflurane. A midline incision was made at the L3-S2 level and the dorsal vertebral column from L4 to S2 was exposed. Part of the L6 transverse process was carefully removed with fine rongeurs. The L5 spinal nerve were isolated and tightly ligated distal to the DRG with a 4-0 silk suture. The wound was closed in two layers using absorbable sutures. A similar procedure was performed for the sham surgery, except that spinal nerve was not isolated and not ligated. After surgery, the posture of the sham-operated and SNL rats was closely monitored before they were used in different experiments.
Mechanical hyperalgesia was measured as the threshold to a noxious mechanical stimulus. Nociceptive thresholds (NT) were determined in handled rats by a modification of the Randall-Selitto method (Kayser et al., Brain Res 1990; 508:329-332). Briefly, a constantly increasing pressure is applied to the rat hind paw until vocalization occurs. A Basile analgesimeter (Apelex, Massy, France; stylus tip diameter, 1 mm) was used. A 600-g cut-off value was determined to prevent tissue damage.
It was administered by oral gavage at different doses in a volume of 1 ml/kg body weight in a solution of dimethylsulfoxide (DMSO) at 3%. Control animals received an equal volume of DMSO 3%.
The data are presented as means±SEM. One-way ANOVA was used to assess individual group comparisons. […] The Newman-Keuls test was used for multiple comparisons between groups.

Assay [4] relates to inflammatory pain (CFA-induced mechanical hypersensitivity). Put plainly: Complete Freund's Adjuvant (CFA) inflammatory pain model, von Frey mechanical hypersensitivity. Particulars: CFA mice; sunitinib 5 or 20 mg/kg; measured 1 and 2 days after administration. Type of assay: in vivo. As for the experimental part:
Adult mice (8-10 week-old) (Janvier LABS, Le Genest Saint-Isle, France) were used according to the guidelines of the International Association for the Study of Pain. Mice were housed in cages with a 12/12 hr light/dark cycle and fed food and water ad libitum. Behavioral responsiveness of the animals was tested following ten days of habituation to the testing environment and the observer. Before testing, mice were acclimatized for 60 min in the temperature and light-controlled testing room within a plastic cylinder or on wire mesh.
A 0.6 g-von Frey filament was used for measuring punctuate hindpaw mechanical hypersensitivity with the dynamic plantar aesthesiometer (Bioseb, France). Sharp withdrawal of the stimulated hindpaw was considered as a positive response. The procedure was applied 10 times and the percentage of positive responses was calculated. Basal positive responses were recorded twice during two, consecutive days.
Inflammatory pain was produced by local injection of Complete Freund's Adjuvant (CFA), which induces a prolonged swelling that becomes maximal at 24 hrs and persists for at least 7 days (Iadarola et al., Pain. 1988; 35:313-26). […] Mechanical hypersensitivity was measured 4 days later. […]

The target in another assay is T1, FLT3 (Mus musculus, UniProt Q00342).
T1 construct: Primary neuronal cultures were established from lumbar (L4 to L6) dorsal root ganglia (DRG) of adult mice; endogenous in cells; host or cells: primary DRG neurons from adult mice
T1 sequence (Q00342 28-1000): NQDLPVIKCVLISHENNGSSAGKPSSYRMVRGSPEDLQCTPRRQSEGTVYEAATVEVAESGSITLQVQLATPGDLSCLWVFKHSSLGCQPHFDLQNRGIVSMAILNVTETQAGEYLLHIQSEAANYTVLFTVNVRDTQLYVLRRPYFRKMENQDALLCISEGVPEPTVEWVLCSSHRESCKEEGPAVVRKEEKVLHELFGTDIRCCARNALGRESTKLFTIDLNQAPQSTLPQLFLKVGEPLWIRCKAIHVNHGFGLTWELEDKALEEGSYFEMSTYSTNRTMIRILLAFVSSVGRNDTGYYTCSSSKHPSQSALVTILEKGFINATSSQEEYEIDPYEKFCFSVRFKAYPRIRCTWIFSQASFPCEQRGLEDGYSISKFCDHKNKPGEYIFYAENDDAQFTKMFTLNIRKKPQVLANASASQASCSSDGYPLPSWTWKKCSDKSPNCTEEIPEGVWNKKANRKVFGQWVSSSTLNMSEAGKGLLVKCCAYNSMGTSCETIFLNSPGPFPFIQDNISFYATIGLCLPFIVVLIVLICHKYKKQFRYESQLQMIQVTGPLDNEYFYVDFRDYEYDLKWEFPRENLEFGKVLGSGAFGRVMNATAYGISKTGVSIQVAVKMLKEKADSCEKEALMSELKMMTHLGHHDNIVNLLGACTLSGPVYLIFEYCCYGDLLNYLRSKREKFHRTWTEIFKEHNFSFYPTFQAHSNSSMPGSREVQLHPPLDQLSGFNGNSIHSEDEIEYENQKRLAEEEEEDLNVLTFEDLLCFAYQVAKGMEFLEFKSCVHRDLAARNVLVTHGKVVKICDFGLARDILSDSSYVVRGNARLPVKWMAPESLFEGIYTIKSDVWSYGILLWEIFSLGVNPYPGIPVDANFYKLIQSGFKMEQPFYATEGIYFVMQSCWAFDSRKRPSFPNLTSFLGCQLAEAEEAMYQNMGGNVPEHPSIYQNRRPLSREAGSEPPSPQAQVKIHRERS
Put plainly: FL potentiation of capsaicin-induced [Ca2+]i response in DRG neurons primary culture. Type of assay: cell-based, mice. Conditions: FL 0.56 nM, capsaicin 0.5 μM. As for the experimental part: Primary neuronal cultures were established from lumbar (L4 to L6) dorsal root ganglia (DRG) of adult mice as previously described (Boudes et al, J. Neurosci. 29, 46, 10060-10068). Ganglia were treated twice with collagenase A (1 mg/ml, Roche Diagnostic, France) for 45 minutes (37° C.) and then with trypsin-EDTA (0.25%, Sigma, St Quentin Fallavier, France) for 30 minutes. They were mechanically dissociated by passing 8 to 10 times through the tip of a fire-polished Pasteur pipette in neurobasal (Life Technologies, Cergy Pontoise, France) culture medium supplemented with 10% foetal bovine serum and DNase (50 U/ml, Sigma, St Quentin Fallavier, France). Isolated cells were collected by centrifugation and suspended in neurobasal culture medium supplemented with 2% B27 (Life Technologies), 2 mM glutamine, penicillin/streptomycin (20 U/ml, 0.2 mg/ml). […]
For intracellular Ca^2+ measurements, DRG neurons were used 18-30 h after plating as described previously. […] A Fura filter cube with 400 long pass dichroic and D510/40m emission band pass was used to collect fluorescence emissions separately for each wavelength. Images were acquired and analyzed with Metafluor software (Molecular Devices). Changes in intracellular calcium concentrations ([Ca^2+]i) were monitored as changes of the ratio of the fura-2-fluorescence intensity recorded at 340 nm and 380 nm excitation wavelengths (ΔF340/380). […]

Assay [5] relates to human tumor cells expressing FLT3-ITD (MV4,11). Put plainly: Tumor regression in mouse xenograft model sensitive to FLT3 inhibition. Conditions: allometric FDA factor for the mouse 12.3; 60 kg. Type of assay: in vivo.
From the text: The dose of FLT3 receptor inhibitor that induces tumor regression in animal models can be measured by using a mouse xenograft model, which is sensitive to FLT3 inhibition. Such a model may consist in an athymic immuno-deficient mouse implanted with human tumor cells that express a mutated, spontaneously activated, form of FLT3. […] An example of tumor cells that express FLT3-ITD is the MV4,11 cell line (Lange et al., Blood, 1987, 70:192-199).
For assay [6] the test system is unchanged. Conditions: mouse xenograft model; literature references in Table 1; cited from earlier work.

We go through ten molecules from patent US10709687B2, “FLT3 receptor inhibitor at low dosage for the treatment of neuropathic pain” (INSTITUT NATIONAL DE LA SANTE ET DE LA RECHERCHE MEDICALE …, priority 2016, dated 2020).

Like-named read-outs stand apart in the source and are kept apart here.

For `COc1cc(Nc2ncc(F)c(Nc3ccc4c(n3)N(COP(=O)(O)O)C(=O)C(C)(C)O4)n2)cc(OC)c1OC` [Fostamatinib], the “Active dose for treating cancer (by cancer type)” value (shortened to “Active dose for treating cancer”) in assay [1] (twice a day) is on record as 100-200 twice a day.
As to `Cc1cc(C)c(/C=C2\C(=O)Nc3ccccc32)[nH]1` [Semaxinib], the “Active dose for treating cancer” value in assay [2] is reported as 235 mg; in assay [1] (advanced or recurrent head and neck cancers) it was 145 mg/m^2.
For `CCc1nc(C(N)=O)c(Nc2ccc(N3CCC(N4CCN(C)CC4)CC3)c(OC)c2)nc1NC1CCOCC1` [Gilteritinib], in assay [3], the “maximal inhibition on the SNL model in rat (dose)” value was 2 mg/kg and the “Human Equivalent Dose (HED) from SNL rat dose” value was “HED = 19.4 mg”. Moreover, the “Human Equivalent Dose (HED) from SNL rat dose” value in assay [3] (listed as gilteritinib) was 19.4 mg.
`CO[C@@H]1[C@H](N(C)C(=O)c2ccccc2)C[C@H]2O[C@]1(C)n1c3ccccc3c3c4c(c5c6ccccc6n2c5c31)C(=O)NC4` [Midostaurin]: the figures for the “Human Equivalent Dose (HED) from SNL rat dose” value in assay [3] and in assay [3] (listed as Midostaurine) were 39 mg and “HED = 39 mg”, respectively.
As for `C1=C/COCc2cc(ccc2OCCN2CCCC2)Nc2nccc(n2)-c2cccc(c2)COC/1` [Pacritinib], the “Active dose for treating cancer” value in assay [1] (once daily) is given as 400; in assay [1] (twice daily) it was 200.
With `CCN(CC)CCNC(=O)c1c(C)[nH]c(/C=C2\C(=O)Nc3ccc(F)cc32)c1C` [Sunitinib], the “mechanical hypersensitivity (percentage of withdrawal after mechanical stimulation)” value in assay [4] is “inactive”. On FLT3 (non-linear regression, read-out: IC50 for inhibition of FL potentiation of the [Ca2+]i peak response to capsaicin), the IC50 is 0.7 nM. Moreover, the “Human Equivalent Dose (HED) from mouse tumor regression dose” value in assay [5] is recorded as 98 mg. Moreover, the “inhibiting dose giving 50% of inhibition (ID50) of SNL-induced mechanical hypersensitivity” value in assay [3] (SNL rats, oral) came out at 0.015 mg/kg. Moreover, the “minimal dose for maximal inhibition of pain sensitivity” value in assay [3] (SNL rats, oral administration, paw pressure 24 hours after administration) worked out at 0.075 mg/kg. The “Human Equivalent Dose (HED) from SNL rat dose” value is listed as “HED = 0.73 mg” in assay [3] and 0.73 mg in assay [3] (listed as sunitinib).
On to `CC(C)(C)c1cc(NC(=O)Nc2ccc(-c3cn4c(n3)sc3cc(OCCN5CCOCC5)ccc34)cc2)no1` [Quizartinib], for which, in assay [3], the “maximal inhibition on the SNL model in rat (dose)” value was found to be 0.77 mg/kg and the “Human Equivalent Dose (HED) from SNL rat dose” value is on record as “HED = 7.5 mg”. Moreover, the “Human Equivalent Dose (HED) from SNL rat dose” value in assay [3] (listed as quizartinib) is listed as 7.5 mg.
Consider `CNC(=O)c1cc(Oc2ccc(NC(=O)Nc3ccc(Cl)c(C(F)(F)F)c3)cc2)ccn1` [Sorafenib], for which, in assay [6], the “minimum inhibiting dose inducing maximal tumor regression” value is 10 mg/kg.
Consider `Nc1ncc(-c2cnn(CCO)c2)c2scc(-c3ccc(NC(=O)Nc4cccc(F)c4)cc3)c12` [Ilorasertib], for which the “minimum inhibiting dose inducing maximal tumor regression” value in assay [6] is 20 mg/kg. Further, in assay [1] (once weekly, acute myelogenous leukaemia, myelodysplastic syndrome or chronic myelomonocytic leukaemia), the “Active dose for treating cancer” value is 540 mg once weekly.

B1: FL: cytokine which is a natural ligand of the FLT3 receptor; from ABCYS SA (protein, UniProt P49771 27-235, looked up)
Fms-related tyrosine kinase 3 …: TQDCSFQHSPISSDFAVKIRELSDYLLQDYPVTVASNLQDEELCGGLWRLVLAQRWMERLKTVAGSKMQGLLERVNTEIHFVTKCAFQPPPSCLRFVQTNISRLLQETSEQLVALKPWITRQNFSRCLELQCQPDSSTLPPPWSPRPLEATAPTAPQPPLLLLLLLPVGLLLLAAAWCLHWQRTRRRTPRPGEQVPPVPSPQDLLLVEH
For the molecule B1, in the assay with FLT3, the “effect on [Ca2+]i peak response to capsaicin” value is “elicited a potentiation”.

Broadly, the IC50 is the concentration that gives 50% inhibition.
